# In patent publication US7179792B2, “Combination product of a 1,4-benzothiepine 1,1-dioxide compound with at least one other active ingredient and the use of the product” (Sanofi-Aventis Deulschland GmbH, priority 2001, dated 2007):
# Tested on: Male Syrian hamsters (Mesocricetus auratus)
# Test: Plasma lipid levels in hamsters fed 0.1% cholesterol, oral treatment for 10 days
# Assay type: in vivo
# Conditions: feed + 0.1% CH; for Plasma Cholesterol % / Plasma Triglycerides %: Cholesterol ctr. = 100; for Plasma Cholesterol / Plasma LDL / Plasma Triglycerides: plasma day 10
# Description: The synergistic activity of the combination product of a compound of formula I with the other active ingredient was tested in an animal experiment. For this purpose, compound V1 from the compound of formula I was tested: Hamsters were used for the biological testing of the combination product of the invention. Male Syrian hamsters (Mesocricetus auratus) from 8 to 10 weeks of age were used for the experiment. The animals received a standard feed (Teklad 8604M) supplemented with 0.1% cholesterol. An additional normal control group received only standard feed. The test substances were administered orally by gavage once a day on 10 consecutive days, and the control group was treated with the vehicle. Feces were collected on days 5 and 6 of the experiment for bile acid analysis. Retroorbital blood was taken from the animals on day 10 of the experiment, and the lipid levels in the plasma were determined. Radioactive tracers were administered orally to the animals on day 9 of the experiment to determine the cholesterol absorption in analocy to the method described by Zilversmith et al. On day 11 of the experiment, the animals were sacrificed, and the animals' livers were removed for cholesterol analysis and preparation of microsomes. The 7α-hydroxylase activity was determined in the liver microsomes ex vivo by a modified method of Hylemon et al. [table] • K00004513 employed as stock solution (1 mg/ml in EtOH) • Substances are dissolved in 2% EtOH in a final concentration of 5%. • The solutions are then suspended with 0.4% potato starch. • Administration takes place 1× in the morning with 10 ml/kg Feed: Teklad 8604M CH: 032201 M Experimental animals: Male Syrian hamsters (Mesocricetus auratus) supplied by Harlan 100–120 g at the start of adaptation Measured Parameters: • Feed consumption • Animal weight (weekly) • Liver weight • Safety parameters (CH; TG; ALAT/ASAT; AP; HDULDL) • Liver cholesterol (HPLC)=1×500 mg in EtOH/KOH • CYP7 activity (liver microsomes as group pool of 0.5 g each—preparation on day of experiment) • Feces collected on day 5–7 for bile acid determination
Compound,Plasma Cholesterol % (0.1 mg/kg/d oral),Plasma Triglycerides % (0.1 mg/kg/d oral),Plasma Cholesterol (0.1 mg/kg/d oral),Plasma LDL (0.1 mg/kg/d oral),Plasma Triglycerides (0.1 mg/kg/d oral),Plasma Cholesterol % (0.3 mg/kg/d oral),Plasma Triglycerides % (0.3 mg/kg/d oral),Plasma Cholesterol (0.3 mg/kg/d oral),Plasma LDL (0.3 mg/kg/d oral),Plasma Triglycerides (0.3 mg/kg/d oral),Plasma Cholesterol % (1 mg/kg/d oral),Plasma Triglycerides % (1 mg/kg/d oral),Plasma Cholesterol (1 mg/kg/d oral),Plasma LDL (1 mg/kg/d oral),Plasma Triglycerides (1 mg/kg/d oral)
"O=C1[C@H](CC[C@H](O)c2ccc(F)cc2)[C@@H](c2ccc(O)cc2)N1c1ccc(F)cc1 [Ezetimibe, ezetimibe, reference compound]",98%,100%,3.44 mmol/L,1.04 mmol/L,1.63 mmol/L,–,–,–,–,–,–,–,–,–,–
CCCC[C@]1(CC)CS(=O)(=O)c2ccc(N(C)C)cc2[C@@H](c2cccc(NC(=O)CCCCNC[C@H](O)[C@@H](O)[C@H](O)[C@H](O)CO)c2)[C@H]1O [V1],120%,115%,4.20 mmol/L,1.06 mmol/L,1.87 mmol/L,114%,108%,4.01 mmol/L,1.18 mmol/L,1.75 mmol/L,92%,124%,3.23 mmol/L,0.92 mmol/L,2.02 mmol/L
